The record followed here is PubChem BioAssay AID1996.

The structures appear in SMILES notation. Values after ≈ are worked out from the molar mass of the structure shown.

For this series the following is noted: buffer; pH 7.4; 200.0 µM.
`O=C(Nc1cccc2cccnc12)c1cccc(Cl)c1` had a solubility (kinetic) of 1.5 µg/mL (≈ 5.31 µM). The same measure for `CC(C)Cc1nnc(NC(=O)C2=COCCO2)s1`: above 40.4 µg/mL; for `O=C(Cc1ccc(Cl)cc1)NCCc1ccc(F)cc1`: 19.4 µg/mL (≈ 66.5 µM); for `O=S(=O)(Oc1ccccc1N1CCCCC1)c1ccccc1`: 2.3 µg/mL (≈ 7.25 µM).

Compound `Cc1cccc(N2C(=O)C(O)=C(C(=O)c3cccs3)C2c2ccccc2)n1` (stereo not drawn) came in with a kinetic solubility of 53 µg/mL (≈ 141 µM).

Compound `O=C(NCC1CCCO1)c1cc2c(s1)CCCC2` (stereo not drawn) had a kinetic solubility above 39.8 µg/mL. Regarding `O=C(NCc1cccc(Cl)c1)c1ccc2c(c1)OCCO2`, the kinetic solubility came to 3.2 µg/mL (≈ 10.5 µM). With `Cc1ccc2oc(C(=O)N(C)Cc3cnccn3)c(C)c2c1`, the solubility (kinetic) is above 44.3 µg/mL. Consider `CCOC(=O)C1=C(COC(=O)COc2ccccc2C=O)NC(=O)NC1C` (stereo not drawn), for which the kinetic solubility was above 56.5 µg/mL. With `COc1ccc(S(=O)(=O)N2CCOCC2)cc1NC(=O)C1CC1`, the kinetic solubility is above 51.1 µg/mL.

`CCc1ccc(NC(=S)N2CCCC2)cc1` registered a kinetic solubility above 35.2 µg/mL. The same measure for `Cc1ccc(C)c(CSCC(=O)NCc2cccs2)c1`: 41.8 µg/mL (≈ 137 µM); for `Cc1ccc(CC(=O)OCC(=O)c2ccc[nH]2)cc1C`: 10.9 µg/mL (≈ 40.2 µM).

On to `CC(=O)Nc1ccc(SCc2c(C)noc2C)cc1`, for which the kinetic solubility is above 41.5 µg/mL. The same measure for `O=c1c(-c2ccccc2)cnc2n1CCS2`: above 34.5 µg/mL.

`COC(=O)c1cccc(NC(=O)c2cc3ccccc3o2)c1` showed a solubility (kinetic) of 13.5 µg/mL (≈ 45.7 µM). `CCCCN(C(=O)C1CC(=O)N(c2ccc3c(c2)OCCO3)C1)c1c(N)n(CCC)c(=O)[nH]c1=O` (stereo not drawn) came in with a kinetic solubility above 72.8 µg/mL.

In the case of `CC(=O)Nc1ccc(C(=O)CN2C(=O)NC3(CCCCCC3)C2=O)c(F)c1`, the kinetic solubility is 33.9 µg/mL (≈ 90.3 µM). The same measure for `Cc1ccccc1NC(=O)CSc1nc(O)cc(=O)n1C`: 35.6 µg/mL (≈ 117 µM). The same measure for `CCCc1nc2oc3ccccc3c(=O)c2c(=O)n1-c1ccc(C)cc1`: 39.8 µg/mL (≈ 115 µM); for `Cc1cc(C)cc(NC(=O)CS(=O)(=O)c2ccccc2)c1`: 44.2 µg/mL (≈ 146 µM); for `CCn1c(SCC(=O)NC2CCCCC2)nnc1-c1ccccc1F`: above 54.4 µg/mL. The same measure for `CCN1C(=O)c2cccc3c(N)ccc(c23)C1=O`: 7.5 µg/mL (≈ 31.2 µM); for `O=C(Nc1ccccc1)c1c(O)c2c(n(Cc3ccco3)c1=O)CCCC2`: below 0.4 µg/mL. The compound `Cc1nnc(SC(C)C(=O)Nc2ccc(Cl)cc2Cl)[nH]c1=O` (stereo not drawn) showed a solubility (kinetic) above 53.9 µg/mL. The same measure for `O=C(O)/C=C/C(=O)Nc1ccc(OC(F)(F)F)cc1Br`: above 53.1 µg/mL; for `Cc1ccccc1CC(=O)NCC1CCCCC1`: 12.9 µg/mL (≈ 52.6 µM); for `NC(=O)c1ccc(NC(=O)CNC(c2ccccc2)c2ccccc2)cc1`: 3.7 µg/mL (≈ 10.3 µM).

Regarding `CCOc1ccc(-n2cc(-c3ccccc3)c3c(=S)nc[nH]c32)cc1`, the solubility (kinetic) came out at 0.3 µg/mL (≈ 0.863 µM).

The compound `O=C(Cc1ccccc1)Oc1ccc([N+](=O)[O-])cc1` registered a kinetic solubility above 38.6 µg/mL. The same measure for `Cc1cccc(N2CCN(C(=O)c3ccc4[nH]c(C)c(C)c4c3)CC2)c1C`: 4.2 µg/mL (≈ 11.6 µM). `CC1CCCN(c2c([N+](=O)[O-])cc(C(=O)O)cc2[N+](=O)[O-])C1` (stereo not drawn) displayed a solubility (kinetic) of 46.2 µg/mL (≈ 149 µM). The same measure for `O=C(COc1ccccc1Cl)NCCCNC(=O)c1cnccn1`: 51.5 µg/mL (≈ 148 µM); for `Cc1onc(-c2ccccc2Cl)c1C(=O)N1CCCCC1C` (stereo not drawn): 45.8 µg/mL (≈ 144 µM). The same measure for `CCOC(=O)c1sc(-c2ccc(Cl)cc2)nc1O`: 40.8 µg/mL (≈ 144 µM); for `CC(=O)N(CCCN(C)C)c1nc2ccc(C)cc2s1.Cl`: above 49.2 µg/mL. As to `N#Cc1cc([N+](=O)[O-])ccc1NC(=O)COC(=O)C1CCC(=O)N1` (stereo not drawn), the kinetic solubility is above 49.8 µg/mL. The same measure for `Cc1ccccc1OCC(=O)OCC(=O)NCc1ccco1`: above 45.5 µg/mL; for `Nc1ccc(Oc2ccccc2-c2ccccc2)cc1`: 10.4 µg/mL (≈ 39.8 µM); for `Cc1cc(C(=O)NC2=NCCS2)c2ccccc2n1`: above 40.7 µg/mL. `CN1C(=O)/C(=C/c2cn(CC(=O)N3CCCCC3)c3ccccc23)NC1=S`: the kinetic solubility is 2.7 µg/mL (≈ 7.06 µM).

The compound `O=S(=O)(Cc1ccccc1)Nc1cccc(F)c1` registered a solubility (kinetic) of 37.6 µg/mL (≈ 142 µM). This solubility kinetic is about 14-fold higher than that of the compound before. With `Cc1ccc(S(=O)(=O)N2CCN(c3ncnc4sccc34)CC2)cc1`, the kinetic solubility is 17.5 µg/mL (≈ 46.7 µM). The same measure for `CCOC(=O)/C(C#N)=C/Nc1ccccc1OC(F)(F)F`: 1.2 µg/mL (≈ 4 µM); for `Cc1nc(CSc2nnc(N)s2)cs1`: above 36.7 µg/mL.

The compound `CC(NC(=O)Cn1cc(C(F)(F)F)ccc1=O)c1ccc(F)cc1` (stereo not drawn) returned a kinetic solubility of 23.5 µg/mL (≈ 68.7 µM).

Regarding `Cc1cccc(C(=O)N2CCC(c3nc4ccccc4s3)CC2)c1`, the solubility (kinetic) is above 50.5 µg/mL.

In the case of `CCOc1ccc(S(=O)(=O)Nc2ccc(OC)nc2)cc1`, the kinetic solubility was above 46.3 µg/mL. With `CC(NC(=O)CNC(=O)c1ccccc1Br)c1cccs1` (stereo not drawn), the kinetic solubility is above 55.1 µg/mL.

`COc1ccc(C(=O)CN2CCN(c3cc(C)nc4ccccc34)CC2)cc1`: the kinetic solubility stood at 45.9 µg/mL (≈ 122 µM). For the compound `COC(=O)c1cccc(N2C(=O)C3C4C=CC(CC4)C3C2=O)c1` (stereo not drawn), the solubility (kinetic) was found to be 9.2 µg/mL (≈ 29.5 µM). This solubility kinetic is about 5-fold lower than that of the compound before. The same measure for `CCN1CCCC1CNC(=O)C(=O)NCc1ccccc1` (stereo not drawn): above 43.4 µg/mL.

In turn, `CCn1c(Oc2ccccc2C)nc2c1c(=O)n(C)c(=O)n2C` had a solubility (kinetic) above 47.2 µg/mL. Consider `O=C(CSc1ccccc1C(=O)O)NCC1CCCCC1`, for which the kinetic solubility stood at 44.2 µg/mL (≈ 144 µM).

`Cc1ccc(CNC(=O)CNC(=O)c2ccc(C(C)(C)C)cc2)n1C` yielded a solubility (kinetic) above 51.2 µg/mL. The same measure for `COc1cccc(CN(C)CC2CCCN(CCc3ccc(Cl)cc3)C2)c1OC` (stereo not drawn): 53.3 µg/mL (≈ 128 µM); for `CCOc1ccc2[nH]cc(C(=O)NCc3ccc(F)cc3)c(=O)c2c1`: 1.9 µg/mL (≈ 5.58 µM); for `CCOC(=O)c1sc(NC(=O)C2CC(=O)N(c3ccc(C)cc3)C2)nc1C` (stereo not drawn): 13 µg/mL (≈ 33.6 µM). `CSc1ncccc1C(=O)Nc1ccc(OC(F)(F)F)cc1` returned a kinetic solubility of 3.8 µg/mL (≈ 11.6 µM). The same measure for `Cc1ccc(S(=O)(=O)NC2CCCCCC2)cc1C(N)=O`: above 46.6 µg/mL; for `CCOC(=O)C1CCN(C(=O)c2ccc(OC3CCN(C(=O)COC)CC3)cc2)CC1`: 45 µg/mL (≈ 104 µM); for `CC(=O)c1cccc(CN2CCN(C3CCCC3)C(CCO)C2)c1` (stereo not drawn): above 49.6 µg/mL. The same measure for `Cc1ccc(C)c(NC(=O)c2nc(Cl)ccc2Cl)c1`: 3.2 µg/mL (≈ 10.8 µM); for `O=C(Nc1nc(-c2ccc(F)c(F)c2)cs1)c1cnccn1`: 0.8 µg/mL (≈ 2.51 µM). `c1ccc(NC2=Nc3cccc4cccc2c34)cc1`: the solubility (kinetic) was 0.6 µg/mL (≈ 2.46 µM). `Cc1cccc(OCC2Cn3c(nc4c3c(=O)[nH]c(=O)n4C)O2)c1` (stereo not drawn) came in with a kinetic solubility of 9 µg/mL (≈ 27.4 µM). The same measure for `CN1CCN(S(=O)(=O)c2cccc(C(=O)O)c2)CC1`: 42 µg/mL (≈ 148 µM).

In turn, `O=[N+]([O-])c1ccc(S(=O)(=O)c2ccccc2)nc1` gave a solubility (kinetic) above 39.6 µg/mL. Turning to `O=C(CCNC(=O)c1ccco1)Nc1ccc(Cl)cc1F`, the solubility (kinetic) is above 46.6 µg/mL.

Compound `O=C(NCCc1ccccc1)c1c(O)c2ccccc2[nH]c1=O` yielded a solubility (kinetic) below 0.3 µg/mL. The same measure for `COc1ccccc1CN(C)C(=O)c1cc2ccccc2o1`: 28.7 µg/mL (≈ 97.2 µM); for `CCOC(=O)c1cccc(NC(=S)NC(=O)c2cccnc2)c1`: 8.1 µg/mL (≈ 24.6 µM); for `Cc1ccsc1C(=O)NCCc1c[nH]c2ccccc12`: above 42.7 µg/mL. The same measure for `C/C=C/C(=O)OCC(=O)Nc1cccc(Br)c1`: 29 µg/mL (≈ 97.3 µM).

Regarding `CC(=O)C1=C(c2ccccc2)NC(=O)NC1c1ccc(O)c(Cl)c1` (stereo not drawn), the solubility (kinetic) was above 51.4 µg/mL. As for `NS(=O)(=O)c1cc([N+](=O)[O-])ccc1NCc1cccnc1`, the kinetic solubility amounted to 44.8 µg/mL (≈ 145 µM).

As for `CC(C)CC(=O)N1CCN(Cc2cccc([N+](=O)[O-])c2)CC1`, the kinetic solubility came out at 33.2 µg/mL (≈ 109 µM). `COc1ccc(Nc2nc(-c3ccncc3)nc3ccccc23)cc1` displayed a kinetic solubility of 0.6 µg/mL (≈ 1.83 µM).

`O=C(Cc1cccc2ccccc12)Nc1cc(Cl)ccc1C(=O)O` returned a kinetic solubility above 51 µg/mL.

`CN(C)CCCNC(=O)C(=O)NCC1CCCO1` (stereo not drawn) displayed a kinetic solubility above 38.6 µg/mL. For the compound `Cc1ccc(C)c(OCC(=O)NC2CCCCCC2)c1`, the kinetic solubility was found to be 3.8 µg/mL (≈ 13.8 µM).

On to `N#Cc1ccccc1OCC(=O)OCC(=O)c1ccc[nH]1`, for which the kinetic solubility came out at 24.9 µg/mL (≈ 87.6 µM).

In the case of `COc1ccc2c(c1)c(C(C)=O)c(C)n2Cc1ccco1`, the kinetic solubility amounted to 36.7 µg/mL (≈ 130 µM).

Compound `CC(C)CC(=O)C1=C(O)C(=O)N(Cc2ccccc2)C1c1ccccc1` (stereo not drawn) displayed a solubility (kinetic) of 47.3 µg/mL (≈ 135 µM). The same measure for `Cc1ccc(C(=O)NCC(=O)Nc2cc(C)ccn2)cc1`: above 42.5 µg/mL; for `O=C(Nc1ccc(F)c(Cl)c1)c1cc(-c2ccco2)on1`: below 0.3 µg/mL; for `CC(C)NC(=O)N(Cc1ccccc1)Cc1cccs1`: 41.8 µg/mL (≈ 145 µM). The same measure for `CCc1ccc(C(C)NC(=O)C2CCCC2)cc1` (stereo not drawn): 18.8 µg/mL (≈ 76.6 µM); for `Cc1nc2ccccc2n1CC(=O)c1ccccc1`: 37 µg/mL (≈ 148 µM). The same measure for `CCCc1cc(=O)oc2cc(OCC(=O)N3CCC(C(N)=O)CC3)ccc12`: above 55.9 µg/mL; for `CN1CCCC(OC(=O)c2cccc(Cl)c2)C1.Cl` (stereo not drawn): above 43.5 µg/mL. Compound `Cc1ccc2[nH]c(C(=O)N3CCC(C(N)=O)CC3)cc2c1` registered a solubility (kinetic) above 42.8 µg/mL. `CCc1ccc(C(C)NC(=S)NCc2ccc(F)cc2)cc1` (stereo not drawn) registered a solubility (kinetic) of 1 µg/mL (≈ 3.16 µM). Compound `COc1cccc(-n2c(=S)[nH]c3c(oc4ccccc43)c2=O)c1` returned a kinetic solubility of 45.3 µg/mL (≈ 140 µM). The same measure for `Cc1ccc(OC(C)C(=O)N2CC(=O)Nc3ccccc32)c(C)c1` (stereo not drawn): 3 µg/mL (≈ 9.25 µM); for `Cc1ccsc1C(=O)OCC(=O)Nc1cccc(F)c1`: 3.4 µg/mL (≈ 11.6 µM); for `Cc1ccc(Cl)cc1NC(=O)COC(=O)CCN1C(=O)C2CC=CCC2C1=O` (stereo not drawn): above 60.7 µg/mL. Compound `Cc1cc(C)cc(N2C(N)=NC(N)=NC2c2ccccc2F)c1.Cl` (stereo not drawn) displayed a solubility (kinetic) above 52.2 µg/mL. In turn, `Cc1noc(NC(=O)c2cccc(Cl)c2Cl)c1C#N` displayed a solubility (kinetic) of 43.1 µg/mL (≈ 146 µM). Regarding `COc1ccc(C(=O)NN2CCOCC2)cc1`, the kinetic solubility is above 35.4 µg/mL. The same measure for `CCOc1ccc(C(=O)NC2CCCCCCC2)cc1`: 2.5 µg/mL (≈ 9.08 µM). Regarding `Cc1ccc(Nc2nc(-c3cccnc3)nc3ccccc23)cc1`, the solubility (kinetic) came out at 0.6 µg/mL (≈ 1.92 µM). With `O=C(c1ccccc1)c1cccn1CC(=O)N1CCc2ccccc2C1`, the solubility (kinetic) amounted to 41.4 µg/mL (≈ 120 µM).
